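Five compound concentrations were applied to cells in 96-well plates for 48 hours; endpoints were derived by simple linear interpolation of the resulting dose-response curve. TGI denotes the concentration required for complete inhibition of growth.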
Experiments:
Test in all cases: NCI anticancer screen, dose series, 48 h
M19-MEL melanoma = system: M19-MEL melanoma
COLO 205 colon = system: COLO 205 colon
NCI-H226 lung = system: NCI-H226 lung
UO-31 renal = system: UO-31 renal
LOX IMVI melanoma = system: LOX IMVI melanoma
LXFL 529 NSCLC = system: LXFL 529 NSCLC
DMS 273 small cell lung = system: DMS 273 small cell lung
DLD-1 colon = system: DLD-1 colon
SK-MEL-5 melanoma = system: SK-MEL-5 melanoma
NCI-H460 lung = system: NCI-H460 lung
HCC-2998 colon = system: HCC-2998 colon
HL-60(TB) leukemia = system: HL-60(TB) leukemia
SK-MEL-2 melanoma = system: SK-MEL-2 melanoma
SR leukemia = system: SR leukemia
SF-295 CNS = system: SF-295 CNS
HT29 colon = system: HT29 colon
U251 CNS = system: U251 CNS
SNB-75 CNS = system: SNB-75 CNS
KM20L2 colon = system: KM20L2 colon
MOLT-4 leukemia = system: MOLT-4 leukemia
HCT-116 colon = system: HCT-116 colon
KM12 colon = system: KM12 colon
TK-10 renal = system: TK-10 renal
SK-MEL-28 melanoma = system: SK-MEL-28 melanoma
ACHN renal = system: ACHN renal
NCI-H23 lung = system: NCI-H23 lung
HOP-62 NSCLC = system: HOP-62 NSCLC
SW-620 colon = system: SW-620 colon
SF-539 CNS = system: SF-539 CNS
SK-OV-3 ovarian = system: SK-OV-3 ovarian
OVCAR-8 ovarian = system: OVCAR-8 ovarian
CCRF-CEM leukemia = system: CCRF-CEM leukemia
DMS 114 small cell lung = system: DMS 114 small cell lung
RPMI-8226 leukemia = system: RPMI-8226 leukemia
EKVX NSCLC = system: EKVX NSCLC
MALME-3M melanoma = system: MALME-3M melanoma
CAKI-1 renal = system: CAKI-1 renal
A498 renal = system: A498 renal
SN12C renal = system: SN12C renal
M14 melanoma = system: M14 melanoma
SNB-78 CNS = system: SNB-78 CNS
OVCAR-4 ovarian = system: OVCAR-4 ovarian
UACC-257 melanoma = system: UACC-257 melanoma
OVCAR-5 ovarian = system: OVCAR-5 ovarian
HOP-92 NSCLC = system: HOP-92 NSCLC
IGROV1 ovarian = system: IGROV1 ovarian
SNB-19 CNS = system: SNB-19 CNS
NCI-H522 lung = system: NCI-H522 lung
OVCAR-3 ovarian = system: OVCAR-3 ovarian
UACC-62 melanoma = system: UACC-62 melanoma
RXF 393 renal = system: RXF 393 renal
A549 NSCLC = system: A549 NSCLC
SF-268 CNS = system: SF-268 CNS
K-562 leukemia = system: K-562 leukemia
786-0 renal = system: 786-0 renal
HCT-15 colon = system: HCT-15 colon

## CC1CCC(=O)NCCCCC(=O)N1 (centres undefined)
M19-MEL melanoma
  TGI: > 100 µM
COLO 205 colon
  TGI: > 100 µM
NCI-H226 lung
  TGI: > 100 µM
UO-31 renal
  TGI: > 100 µM
LOX IMVI melanoma
  TGI: > 100 µM
LXFL 529 NSCLC
  TGI: > 100 µM
DMS 273 small cell lung
  TGI: > 100 µM
DLD-1 colon
  TGI: > 100 µM
SK-MEL-5 melanoma
  TGI: > 100 µM
NCI-H460 lung
  TGI: > 100 µM
HCC-2998 colon
  TGI: > 100 µM
HL-60(TB) leukemia
  TGI: > 100 µM
SK-MEL-2 melanoma
  TGI: > 100 µM
SR leukemia
  TGI: > 100 µM
SF-295 CNS
  TGI: > 100 µM
HT29 colon
  TGI: > 100 µM
U251 CNS
  TGI: > 100 µM
SNB-75 CNS
  TGI: > 100 µM
KM20L2 colon
  TGI: > 100 µM
MOLT-4 leukemia
  TGI: > 100 µM
HCT-116 colon
  TGI: > 100 µM
KM12 colon
  TGI: > 100 µM
TK-10 renal
  TGI: > 100 µM
SK-MEL-28 melanoma
  TGI: > 100 µM
ACHN renal
  TGI: > 100 µM
NCI-H23 lung
  TGI: > 100 µM
HOP-62 NSCLC
  TGI: > 100 µM
SW-620 colon
  TGI: > 100 µM
SF-539 CNS
  TGI: > 100 µM
SK-OV-3 ovarian
  TGI: > 100 µM
OVCAR-8 ovarian
  TGI: > 100 µM
CCRF-CEM leukemia
  TGI: > 100 µM
DMS 114 small cell lung
  TGI: > 100 µM
RPMI-8226 leukemia
  TGI: > 100 µM
EKVX NSCLC
  TGI: > 100 µM
MALME-3M melanoma
  TGI: > 100 µM
CAKI-1 renal
  TGI: > 100 µM
A498 renal
  TGI: > 100 µM
SN12C renal
  TGI: > 100 µM
M14 melanoma
  TGI: > 100 µM
SNB-78 CNS
  TGI: > 100 µM
OVCAR-4 ovarian
  TGI: > 100 µM
UACC-257 melanoma
  TGI: > 100 µM
OVCAR-5 ovarian
  TGI: > 100 µM
HOP-92 NSCLC
  TGI: > 100 µM
IGROV1 ovarian
  TGI: > 100 µM
SNB-19 CNS
  TGI: > 100 µM
NCI-H522 lung
  TGI: > 100 µM
OVCAR-3 ovarian
  TGI: > 100 µM
UACC-62 melanoma
  TGI: > 100 µM
RXF 393 renal
  TGI: > 100 µM
A549 NSCLC
  TGI: > 100 µM
SF-268 CNS
  TGI: > 100 µM
K-562 leukemia
  TGI: > 100 µM
786-0 renal
  TGI: > 100 µM

## CCCCCC(=O)N[C@H]1CCc2cc(O)c(O)c(O)c2-c2ccc(SC)c(=O)cc21
M19-MEL melanoma
  TGI: 53.1 µM
COLO 205 colon
  TGI: 44.5 µM
NCI-H226 lung
  TGI: 72.6 µM
UO-31 renal
  TGI: > 100 µM
LOX IMVI melanoma
  TGI: 44.3 µM
LXFL 529 NSCLC
  TGI: 48.7 µM
DMS 273 small cell lung
  TGI: > 100 µM
DLD-1 colon
  TGI: 40.6 µM
SK-MEL-5 melanoma
  TGI: 75.5 µM
NCI-H460 lung
  TGI: > 100 µM
HCC-2998 colon
  TGI: > 79 µM
HL-60(TB) leukemia
  TGI: 51.2 µM
SK-MEL-2 melanoma
  TGI: 72.4 µM
SR leukemia
  TGI: 68.8 µM
SF-295 CNS
  TGI: 54.1 µM
HT29 colon
  TGI: > 87.1 µM
U251 CNS
  TGI: > 73.8 µM
SNB-75 CNS
  TGI: 78.5 µM
KM20L2 colon
  TGI: 53.7 µM
MOLT-4 leukemia
  TGI: 90.1 µM
HCT-116 colon
  TGI: 33 µM
KM12 colon
  TGI: > 100 µM
TK-10 renal
  TGI: > 100 µM
SK-MEL-28 melanoma
  TGI: > 100 µM
ACHN renal
  TGI: > 100 µM
NCI-H23 lung
  TGI: 55 µM
HOP-62 NSCLC
  TGI: > 100 µM
HCT-15 colon
  TGI: 42.9 µM
SW-620 colon
  TGI: 33.6 µM
SF-539 CNS
  TGI: 45.3 µM
SK-OV-3 ovarian
  TGI: 66.2 µM
OVCAR-8 ovarian
  TGI: > 59.8 µM
CCRF-CEM leukemia
  TGI: > 76.9 µM
DMS 114 small cell lung
  TGI: 24 µM
RPMI-8226 leukemia
  TGI: > 100 µM
EKVX NSCLC
  TGI: > 100 µM
MALME-3M melanoma
  TGI: > 100 µM
CAKI-1 renal
  TGI: 91.6 µM
A498 renal
  TGI: 64.1 µM
SN12C renal
  TGI: 42.7 µM
M14 melanoma
  TGI: 36.7 µM
SNB-78 CNS
  TGI: > 100 µM
OVCAR-4 ovarian
  TGI: 44.7 µM
UACC-257 melanoma
  TGI: > 75.3 µM
OVCAR-5 ovarian
  TGI: > 100 µM
HOP-92 NSCLC
  TGI: 90.9 µM
IGROV1 ovarian
  TGI: > 100 µM
SNB-19 CNS
  TGI: > 100 µM
NCI-H522 lung
  TGI: 54.5 µM
OVCAR-3 ovarian
  TGI: 99.6 µM
UACC-62 melanoma
  TGI: 83.4 µM
RXF 393 renal
  TGI: > 100 µM
A549 NSCLC
  TGI: > 100 µM
SF-268 CNS
  TGI: > 100 µM
K-562 leukemia
  TGI: > 49.9 µM
786-0 renal
  TGI: > 100 µM

## O=C(c1nc2ccc(Cl)cc2[nH]c1=O)C(O)c1ccccc1 (centres undefined)
M19-MEL melanoma
  TGI: > 100 µM
COLO 205 colon
  TGI: > 100 µM
NCI-H226 lung
  TGI: > 100 µM
UO-31 renal
  TGI: > 100 µM
LOX IMVI melanoma
  TGI: > 100 µM
LXFL 529 NSCLC
  TGI: > 100 µM
DMS 273 small cell lung
  TGI: > 100 µM
DLD-1 colon
  TGI: > 100 µM
SK-MEL-5 melanoma
  TGI: > 100 µM
NCI-H460 lung
  TGI: > 100 µM
HCC-2998 colon
  TGI: > 100 µM
HL-60(TB) leukemia
  TGI: 68.8 µM
SK-MEL-2 melanoma
  TGI: > 100 µM
SR leukemia
  TGI: > 100 µM
SF-295 CNS
  TGI: > 100 µM
HT29 colon
  TGI: > 100 µM
KM20L2 colon
  TGI: > 100 µM
MOLT-4 leukemia
  TGI: > 100 µM
HCT-116 colon
  TGI: > 100 µM
KM12 colon
  TGI: > 100 µM
TK-10 renal
  TGI: > 100 µM
SK-MEL-28 melanoma
  TGI: > 100 µM
ACHN renal
  TGI: > 100 µM
NCI-H23 lung
  TGI: > 100 µM
HOP-62 NSCLC
  TGI: > 100 µM
HCT-15 colon
  TGI: > 100 µM
SW-620 colon
  TGI: > 100 µM
SF-539 CNS
  TGI: > 100 µM
SK-OV-3 ovarian
  TGI: > 100 µM
OVCAR-8 ovarian
  TGI: > 100 µM
CCRF-CEM leukemia
  TGI: 25.4 µM
DMS 114 small cell lung
  TGI: > 100 µM
RPMI-8226 leukemia
  TGI: > 100 µM
EKVX NSCLC
  TGI: > 100 µM
MALME-3M melanoma
  TGI: > 100 µM
CAKI-1 renal
  TGI: > 100 µM
A498 renal
  TGI: > 100 µM
SN12C renal
  TGI: > 100 µM
M14 melanoma
  TGI: > 100 µM
SNB-78 CNS
  TGI: > 100 µM
OVCAR-4 ovarian
  TGI: > 100 µM
UACC-257 melanoma
  TGI: > 100 µM
OVCAR-5 ovarian
  TGI: > 100 µM
HOP-92 NSCLC
  TGI: > 100 µM
IGROV1 ovarian
  TGI: > 100 µM
SNB-19 CNS
  TGI: > 100 µM
NCI-H522 lung
  TGI: > 100 µM
OVCAR-3 ovarian
  TGI: > 100 µM
UACC-62 melanoma
  TGI: > 100 µM
A549 NSCLC
  TGI: > 100 µM
SF-268 CNS
  TGI: > 100 µM
K-562 leukemia
  TGI: > 100 µM
786-0 renal
  TGI: > 100 µM
